Measurements from paper PMC6261661 (ACS chemical neuroscience, 2018).
“And” between values parts separate entries of the source, which are not always exact repeats. Equal values may be shown once. Read-outs that look alike come from different tables or passages of the source. Square brackets hold non-standard residues; d marks the D form. Peptide text beside a SMILES is read from it. dPhe(4-I) = N[C@H](Cc1ccc(I)cc1)C(=O)O; 2Nal = N[C@@H](Cc1ccc2ccccc2c1)C(=O)O

Tests used:
mMC1R [1] = molecular target: T1, mMC1R (Mus musculus, UniProt Q01727); assay: CRE/β-galactosidase reporter gene bioassay, agonist activity at mMC1R; type: cell-based
mMC4R [2] = molecular target: T2, mMC4R (Mus musculus, UniProt P56450); assay: CRE/β-galactosidase reporter gene bioassay, agonist activity at mMC4R; type: cell-based; settings: ligand at 100 μM, compared to maximal response generated by α-MSH
mMC5R [3] = molecular target: T3, mMC5R (Mus musculus, UniProt P41149); assay: CRE/β-galactosidase reporter gene bioassay, agonist activity at mMC5R; type: cell-based
mMC3R [4] = molecular target: T4, mMC3R (Mus musculus, UniProt P33033); assay: Antagonist Schild analysis against agonist MTII at mMC3R; type: cell-based
mMC4R [5] = molecular target: T2, mMC4R; assay: Antagonist Schild analysis against agonist MTII at mMC4R; type: cell-based
male and female mice = settings: central administration, ref [37]; cited from earlier work
mMC1R [6] = molecular target: T1, mMC1R; settings: read-out: mMC1R EC50; reference peptide from the literature; ref [31]; cited from earlier work
mMC3R [7] = molecular target: T4, mMC3R; settings: read-out: mMC3R EC50; reference peptide from the literature; ref [31]; cited from earlier work
mMC4R [8] = molecular target: T2, mMC4R; settings: read-out: mMC4R EC50; reference peptide from the literature; ref [31]; cited from earlier work
mMC5R [9] = molecular target: T3, mMC5R; settings: read-out: mMC5R EC50; reference peptide from the literature; ref [31]; cited from earlier work
[10] = fold difference in EC50 vs peptide 1, negative prefix = more potent than 1
[11] = Ant = antagonist, SA = some stimulatory activity at 100 µM

T1 sequence (Q01727 whole entry): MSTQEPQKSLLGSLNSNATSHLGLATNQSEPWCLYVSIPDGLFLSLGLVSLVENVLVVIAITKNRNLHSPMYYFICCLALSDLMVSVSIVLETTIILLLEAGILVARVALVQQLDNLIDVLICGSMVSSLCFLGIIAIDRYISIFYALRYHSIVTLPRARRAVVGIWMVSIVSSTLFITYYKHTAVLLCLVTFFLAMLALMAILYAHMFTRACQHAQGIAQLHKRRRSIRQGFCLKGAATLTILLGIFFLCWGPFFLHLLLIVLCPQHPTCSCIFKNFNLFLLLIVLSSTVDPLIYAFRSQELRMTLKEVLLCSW
T2 sequence (P56450 whole entry): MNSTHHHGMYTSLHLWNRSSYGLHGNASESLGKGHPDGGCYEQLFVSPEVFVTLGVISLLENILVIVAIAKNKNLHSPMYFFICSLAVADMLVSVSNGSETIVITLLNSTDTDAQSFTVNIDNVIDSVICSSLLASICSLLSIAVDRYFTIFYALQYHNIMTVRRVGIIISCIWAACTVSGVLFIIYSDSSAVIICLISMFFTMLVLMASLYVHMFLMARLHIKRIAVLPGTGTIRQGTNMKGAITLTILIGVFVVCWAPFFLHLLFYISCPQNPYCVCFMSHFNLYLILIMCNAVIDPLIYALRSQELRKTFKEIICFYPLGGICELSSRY
T3 sequence (P41149 whole entry): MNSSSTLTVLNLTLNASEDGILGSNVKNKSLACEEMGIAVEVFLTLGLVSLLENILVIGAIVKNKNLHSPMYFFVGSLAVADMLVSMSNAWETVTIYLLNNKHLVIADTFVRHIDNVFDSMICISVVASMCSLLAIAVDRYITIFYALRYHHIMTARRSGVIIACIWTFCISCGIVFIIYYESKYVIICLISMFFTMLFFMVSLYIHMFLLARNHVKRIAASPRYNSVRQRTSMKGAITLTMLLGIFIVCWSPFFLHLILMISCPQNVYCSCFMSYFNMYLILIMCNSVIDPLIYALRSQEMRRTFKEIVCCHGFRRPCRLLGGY
T4 sequence (P33033 whole entry): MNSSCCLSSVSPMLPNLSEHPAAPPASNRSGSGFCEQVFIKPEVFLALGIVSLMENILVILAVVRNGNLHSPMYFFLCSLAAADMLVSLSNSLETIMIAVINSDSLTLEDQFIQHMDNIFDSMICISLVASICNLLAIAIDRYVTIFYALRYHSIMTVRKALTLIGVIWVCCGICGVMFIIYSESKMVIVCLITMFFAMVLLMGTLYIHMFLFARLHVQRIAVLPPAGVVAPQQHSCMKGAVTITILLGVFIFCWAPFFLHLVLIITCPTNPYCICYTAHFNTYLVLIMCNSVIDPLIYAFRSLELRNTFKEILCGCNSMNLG

CC(=O)N[C@@H](Cc1c[nH]c2ccccc12)C(=O)N[C@H](Cc1ccc(I)cc1)C(=O)N[C@@H](CCCNC(=N)N)C(=O)N[C@@H](Cc1c[nH]c2ccccc12)C(N)=O [Peptide 13, Ac-Trp-(pI)DPhe-Arg-Trp-NH2] (Ac-W[dPhe(4-I)]RW-NH2)
mMC1R Fold Diff (mMC1R [1]; [10]): 30
EC50 (mMC1R [1]; mMC1R EC50, agonist, HEK-293 cells stably expressing receptor, ±SEM): 4200 ± 1200 nM
mMC4R relative percentage of stimulation at 100 μM (mMC4R [2]): 40%
EC50 (mMC5R [3]): 10000 ± 3000 nM
mMC5R Fold Diff. (mMC5R [3]; [10]): 1905
mMC5R fold less potent than peptide 1 (mMC5R [3]; less potent than 1): 1900 fold
Kb (mMC3R [4]): 63.1 nM
mMC3R pharmacology class printed in Fold Diff column (Ant, SA) (mMC3R [4]; [11]): Ant
Kb (mMC4R [5]): 5.01 nM
mMC4R pharmacology class printed in Fold Diff. column (Ant, SA) (mMC4R [5]; [11]): SA Ant
effect on energy homeostasis in vivo (male and female mice): different effects on energy homeostasis in male mice compared to female mice

CC(=O)N[C@@H](Cc1c[nH]cn1)C(=O)N[C@H](Cc1ccccc1)C(=O)N[C@@H](CCCNC(=N)N)C(=O)N[C@@H](Cc1ccc2ccccc2c1)C(N)=O [Peptide 39, Ac-His-DPhe-Arg-Nal(2’)-NH2] (Ac-H[dF]R[2Nal]-NH2)
selectivity between the mMC1R and the mMC5R (mMC5R [3]; monosubstituted reference peptides, from literature EC50 values of Table 3): ≤ 5 fold
EC50 (mMC1R [6]): 17.9 ± 6 nM
EC50 (mMC3R [7]): 740 ± 160 nM
EC50 (mMC4R [8]): 16 nM and 15.8 nM
EC50 (mMC5R [9]): 4.9 ± 1.5 nM
